“Also recorded” adds a separate entry of the source.
Key:
[1] = tested on: MDA-MB-231-shNRP-1 xenografts; assay: MDA-MB-231 xenografts in Nude mice; format: in vivo; conditions: Leptin treatment, KL1 staining
Source text: (§1) First MBA-MB-231 and T47D breast cancer cells line were selected for their high and undetectable NRP-1 expression respectively and the expression of Leptin receptor (OBR). In order to investigate NRP-1 and Leptin association in breast cancer cell line migration, we proceeded to NRP-1 expression silencing in MDA-MB-231 using either siRNA or shRNA approaches or NRP-1 overexpression in T47D. […] In contrast Leptin induced MDA-MB-231 migration that was decreased in siNRP-1 conditions. The in vitro data were confirmed in vivo by MDA-MB-231 and T47D xenografts in Nude mice. Modulation of NRP-1 expression either by shRNA silencing in MDA-MB-231 or by overexpression in T47D induced an increase of proliferation and a decrease of lymph node infiltration by MDA-MB-231-shNRP-1 and a decrease of proliferation and an increase of lymph node infiltration by T47D-NRP-1-RFP in mice treated with Leptin.
This need to be more investigated and may be a new strategy for combined anti-Leptin and anti-VEGF therapies in breast cancer. […] In vitro and in vivo data are a direct evidence of NRP-1 and Leptin association in breast cancer cell line migration. This implication of Leptin and NRP-1 are in agreement of published data but with no association between Leptin and NRP-1.

[2] = target: Human neuropilin-1 (hNRP-1) (Homo sapiens, UniProt O14786); assay: Bio-Layer Interferometry (BLI) interaction with hNRP-1; format: binding
Source text: FIG. 5. NRP-1, OBR and leptin interactions confirmation using a Bio-Layer Interferometry (BLI) technology (fortebio.com/bli-technology.html): A-Leptin (OB) interaction to OBR is used as a positive control. Human neuropilin-1 (hNRP-1) interact with human OBR with a high affinity and specifically with human leptin (hOB) but not with murine leptin (mOB). VEGF165 binding to hNRP-1 is used as a positive control. B-Leptin and Avastin association increases MDA-MB231 cells transmigration through […] pore Insert. Avastin treatment may prevent a negative feedback control by VEGF of the pro-angiogenic signaling pathway of Leptin. VEGF binds to OBR which confirms our hypothesis that should be more investigated.

[3] = tested on: OBR and STAT3 phosphorylation; assay: OBR and STAT3 phosphorylation in cytoplasmic and nuclear fractions; format: cell-based; conditions: Leptin stimulation
Source text: Since both NRP-1/OBR complex formation and NRP-1 phosphorylation were abolished by CK2 inhibition, we supposed that OBR signaling pathway could be also affected by CK2 inhibition.

[4] = tested on: P-NRP-1; assay: NRP-1 (P-NRP-1) and OBR phosphorylation in MDA-MB-231, immunostaining / coimmunoprecipitation; format: cell-based, human; conditions: MDA-MB-231 serum starved, Leptin (10 nM)
Source text: Beside the modulation of the NRP-1/OBR complex formation by Leptin and OBR phosphorylation, we postulated a possible phosphorylation of NRP-1 that can regulate the translocation of the complex to the nucleus. Two putative phosphorylation sites of NRP-1 have been reported with no more investigation. The first one at the extracellular B domain as reported by Shintani et al in 2009 with no antibody available and the second one at the Threonine 916 located in the cytoplasmic domain as it was reported by Kyle et al in 2011. Since a specific antibody against P-NRP-1 at the T916 was available, we investigated by coimmunoprecipitation the detection of P-NRP-1 in MDA-MB-231 after serum starvation and stimulation by Leptin (10 nM). […] To confirm this phosphorylation state, we investigated the possible implication of a Serine/threonine Kinase CK2 using one of its first chemical inhibitor (DRB). In serum starved condition, P-NRP-1 was detected as polarized spot in the cytoplasm and the nucleus of MDA-MB-231. […] The inhibition was specific since, in stimulated condition combined with DMSO at the same dilution of DRB, we were able to observe a diffuse nuclear P-NRP-1 staining.

[5] = tested on: MDA-MB-231 and T47D-NRP-1; assay: In vitro cell proliferation (MTT, (H3)-thymidine, BrdU incorporation); format: cell-based, human; conditions: Leptin stimulation
Source text: as §1
This observation can lead to conclude that NRP-1 induces tumor growth independently of Leptin/OBR pathway and that NRP-1/OBR complex signaling is in a favor of cell movement and migration induction. The implication of Leptin in tumor growth and metastasis has already been studied but the published data are contradictory depending on cancer cell type and model studies. […] In our case, in vitro leptin implication in cell growth has been evaluated by different methods. […]

interaction with hNRP-1 [2]: interact
Substance: Leptin: small non glycosylated protein, ligand of OBR
lymph node infiltration by MDA-MB-231-shNRP-1 [1]: did not increase
OBR and STAT3 phosphorylation [3]: increase
NRP-1 phosphorylation (T916) [4]: phosphorylated
cell proliferation [5]: decreased; also recorded: unable to observe; also recorded: not able to observe a significant increase
